test system: not given; settings: not given

Question: For `CSc1c(C(=N)NO)nn(-c2c(Cl)cc(C(F)(F)F)cc2Cl)c1N` [Compound 47, 5-Amino-1-[2,6-dichloro-4-(trifluoromethyl)phenyl]-N-hydroxy-4-methylthio-1H-pyrazole-3-carboximidamide], which melting point is on record?
Answer: 207 to 208 °C

Question: For `CCS(=O)(=O)c1c(C(=N)NO)nn(-c2c(Cl)cc(C(F)(F)F)cc2Cl)c1N` [Compound 48, 5-Amino-1-[2,6-dichloro-4-(trifluoromethyl)phenyl]-N-hydroxy-4-ethylsulfonyl-1H-pyrazole-3-carboximidamide], which melting point is on record?
Answer: 109 to 111 °C

Question: Which melting point does the source give for `CONC(=N)c1nn(-c2c(Cl)cc(C(F)(F)F)cc2Cl)c(N)c1[S+](C)[O-]` (stereo not drawn) [Compound 49, 5-Amino-1-[2,6-dichloro-4-(trifluoromethyl)phenyl]-N-methoxy-4-methylsulfinyl-1H-pyrazole-3-carboximidamide] here?
Answer: 140 to 145 °C

Question: With `CN=C(NOC)c1nn(-c2c(Cl)cc(C(F)(F)F)cc2Cl)c(N)c1[S+](C)[O-]` (stereo not drawn) [Compound 50, 5-Amino-1-[2,6-dichloro-4-(trifluoromethyl)phenyl]-N-methoxy-N′-methyl-4-methylsulfinyl-1H-pyrazole-3-carboximidamide] as the molecule, how does the melting point read?
Answer: 139 to 142 °C

Question: For `N=C(NO)c1nn(-c2c(Cl)cc(C(F)(F)F)cc2Cl)c(N)c1[S+]([O-])CCF` (stereo not drawn) [Compound 51, 5-Amino-1-[2,6-dichloro-4-(trifluoromethyl)phenyl]-N-hydroxy-4-(2-fluoroethylsulfinyl)-1H-pyrazole-3-carboximidamide], which melting point is on record?
Answer: 212 to 215 °C

Question: With `N=C(NO)c1nn(-c2c(Cl)cc(C(F)(F)F)cc2Cl)c(N)c1S(=O)(=O)CCF` [Compound 52, 5-Amino-1-[2,6-dichloro-4-(trifluoromethyl)phenyl]-N-hydroxy-4-(2-fluoroethylsulfonyl)-1H-pyrazole-3-carboximidamide] as the molecule, how does the melting point read?
Answer: 107 to 111 °C

Question: For `C[S+]([O-])c1c(C(=N)NO)nn(-c2ncc(C(F)(F)F)cc2Cl)c1N` (stereo not drawn) [Compound 54, 5-Amino-1-[3-chloro-5-(trifluoromethyl)-2-pyridinyl]-4-methylsulfinyl-N-hydroxy-1H-pyrazole-3-carboximidamide], which melting point is on record?
Answer: 234 to 235 °C

Question: With `CNc1c([S+](C)[O-])c(C(=N)NO)nn1-c1c(Cl)cc(C(F)(F)F)cc1Cl` (stereo not drawn) [Compound 55, 1-[2,6-Dichloro-4-(trifluoromethyl)phenyl]-N-hydroxy-5-methylamino-4-methylsulfinyl-1H-pyrazole-3-carboximidamide] as the molecule, how does the melting point read?
Answer: 191 to 192 °C

Question: For `CCNc1c([S+](C)[O-])c(C(=N)NO)nn1-c1c(Cl)cc(C(F)(F)F)cc1Cl` (stereo not drawn) [Compound 56, 1-[2,6-Dichloro-4-(trifluoromethyl)phenyl]-5-ethylamino-N-hydroxy-4-methylsulfinyl-1H-pyrazole-3-carboximidamide], which melting point is on record?
Answer: 192 to 193 °C

Question: For `C[S+]([O-])c1c(C(=N)NO)nn(-c2c(Cl)cc(C(F)(F)F)cc2Cl)c1NCCC#N` (stereo not drawn) [Compound 58, 5-[2-(Cyano)ethylamino]-1-[2,6-dichloro-4-(trifluoromethyl)phenyl]-N-hydroxy-4-methylsulfinyl-1H-pyrazole-3-carboximidamide], which melting point is on record?
Answer: 175 to 176 °C

Question: For `C[S+]([O-])c1c(C(=N)NO)nn(-c2c(Cl)cc(C(F)(F)F)cc2Cl)c1NCC(N)=O` (stereo not drawn) [Compound 59, 5-(Aminocarbonylmethylamino)-1-[2,6-dichloro-4-(trifluoromethyl)phenyl]-N-hydroxy-4-methylsulfinyl-1H-pyrazole-3-carboximidamide], which melting point is on record?
Answer: 119 to 120 °C

Question: Which melting point does the source give for `C[S+]([O-])c1c(C(=N)NO)nn(-c2c(Cl)cc(C(F)(F)F)cc2Cl)c1NCCS(=O)(=O)c1ccccc1` (stereo not drawn) [Compound 60, 1-[2,6-Dichloro-4-(trifluoromethyl)phenyl]-4-methylsulfinyl-5-[2-(phenylsulfonyl)ethylamino]-N-hydroxy-1H-pyrazole-3-carboximidamide] here?
Answer: 131 to 134 °C

Question: For `C[S+]([O-])C1=C(N)N(c2c(Br)cc(C(F)(F)F)cc2Br)N(O)C1C(=N)N` (stereo not drawn) [Compound 61, 5-Amino-1-[2,6-dibromo-4-(trifluoromethyl)phenyl]-4-methylsulfinyl-2-N-hydroxy-1H-pyrazole-3-carboximidamide], which melting point is on record?
Answer: 240 to 241 °C

Question: Which melting point does the source give for `CCNC1(c2c(Cl)cc(C(F)(F)F)cc2Br)NNC(C(=N)NO)=C1[S+](C)[O-]` (stereo not drawn) [Compound 62, 5-[2-Bromo-6-chloro-4-(trifluoromethyl)phenyl]-5-ethylamino-4-methylsulfinyl-N-hydroxy-1H-pyrazole-3-carboximidamide] here?
Answer: 213 to 214 °C

Question: For `C[S+]([O-])c1c(C(=N)NO)nn(-c2c(Cl)cc(C(F)(F)F)cc2Br)c1N` (stereo not drawn) [Compound 63, 5-Amino-1-[2-bromo-6-chloro-4-(trifluoromethyl)phenyl]-4-methylsulfinyl-N-hydroxy-1H-pyrazole-3-carboximidamide], which melting point is on record?
Answer: 237 to 238 °C

Question: For `CC[S+]([O-])c1c(C(=N)NO)nn(-c2c(Cl)cc(C(F)(F)F)cc2Cl)c1NCC[S+](C)[O-]` (stereo not drawn) [Compound 64, 1-[2,6-Dichloro-4-(trifluoromethyl)phenyl]-4-ethylsulfinyl-5-[2-(methylsulfinyl)ethylamino]-N-hydroxy-1H-pyrazole-3-carboximidamide], which melting point is on record?
Answer: 108 to 109 °C

Question: With `C[S+]([O-])CCNc1c([S+](C)[O-])c(C(=N)NO)nn1-c1c(Cl)cc(C(F)(F)F)cc1Cl` (stereo not drawn) [Compound 65, 1-[2,6-Dichloro-4-(trifluoromethyl)phenyl]-4-methylsulfinyl-5-[2-(methylsulfinyl)ethylamino]-N-hydroxy-1H-pyrazole-3-carboximidamide] as the molecule, how does the melting point read?
Answer: 150 to 151 °C

Question: With `CC[S+]([O-])CCNc1c([S+]([O-])CC)c(C(=N)NO)nn1-c1c(Cl)cc(C(F)(F)F)cc1Cl` (stereo not drawn) [Compound 66, 1-[2,6-Dichloro-4-(trifluoromethyl)phenyl]-4-ethylsulfinyl-5-[2-(ethylsulfinyl)ethylamino]-N-hydroxy-1H-pyrazole-3-carboximidamide] as the molecule, how does the melting point read?
Answer: 173 to 175 °C

Question: For `C#CCNc1c([S+](C)[O-])c(C(=N)NO)nn1-c1c(Cl)cc(C(F)(F)F)cc1Cl` (stereo not drawn) [Compound 67, 1-[2,6-Dichloro-4-(trifluoromethyl)phenyl]-4-methylsulfinyl-5-[(prop-2-ynyl)amino]-N-hydroxy-1H-pyrazole-3-carboximidamide], which melting point is on record?
Answer: 194 to 196 °C

Question: For `C[S+]([O-])c1c(C(=N)NO)nn(-c2ccc(C(F)(F)F)cc2Cl)c1N` (stereo not drawn) [Compound 68, 5-Amino-1-[2-chloro-4-(trifluoromethyl)phenyl]-4-methylsulfinyl-N-hydroxy-1H-pyrazole-3-carboximidamide], which melting point is on record?
Answer: 238 to 239 °C

Question: With `C[S+]([O-])c1c(C(=N)NN)nn(-c2c(Cl)cc(C(F)(F)F)cc2Cl)c1N` (stereo not drawn) [Compound 69, 5-Amino-1-[2,6-dichloro-4-(trifluoromethyl)phenyl]-4-methylsulfinyl-N-amino-1H-pyrazole-3-carboximidamide] as the molecule, how does the melting point read?
Answer: 210 °C

Question: For `CC(C)C(=O)NNC(=N)c1nn(-c2c(Cl)cc(C(F)(F)F)cc2Cl)c(N)c1[S+](C)[O-]` (stereo not drawn) [Compound 70, 5-Amino-1-[2,6-dichloro-4-(trifluoromethyl)phenyl]-4-methylsulfinyl-N-(isopropylcarbonyl)amino-1H-pyrazole-3-carboximidamide], which melting point is on record?
Answer: 118 °C

Question: For `CCCCCCCC(=O)NNC(=N)c1nn(-c2c(Cl)cc(C(F)(F)F)cc2Cl)c(N)c1[S+](C)[O-]` (stereo not drawn) [Compound 71, 5-Amino-1-[2,6-dichloro-4-(trifluoromethyl)phenyl]-4-methylsulfinyl-N-(n-heptylcarbonyl)amino-1H-pyrazole-3-carboximidamide], which melting point is on record?
Answer: 122 °C

test system: Lucilia sericata, sleep blow fly; settings: disclosed in WO 92/13451; cited from earlier work

Question: With `N#Cc1nc(-c2c(C=NO)nn(-c3c(Cl)cc(C(F)(F)F)cc3Cl)c2Cl)[nH]c1C#N` [5-chloro-1-[2,6-dichloro-4-(trifluoromethyl)phenyl]-4-(4,5-dicyano-1H-imadazol-2-yl)-3-hydroxyiminomethyl-1H-pyrazole] as the molecule, how does the “activity against Lucilia sericata” value read?
Answer: activity against a single species
